Measured values published in ChEMBL document CHEMBL3259629, “Discovery and optimization of piperidyl-1,2,3-triazole ureas as potent, selective, and in vivo-active inhibitors of α/β-hydrolase domain containing 6 (ABHD6)” (J Med Chem, 2013).

Tests used:
Conditions in all cases: Neuro2a, 3 nM
[1] = target: T1, Lysosomal phospholipase A and acyltransferase (Mus musculus) (UniProt Q8VEB4)
T1 sequence (whole entry): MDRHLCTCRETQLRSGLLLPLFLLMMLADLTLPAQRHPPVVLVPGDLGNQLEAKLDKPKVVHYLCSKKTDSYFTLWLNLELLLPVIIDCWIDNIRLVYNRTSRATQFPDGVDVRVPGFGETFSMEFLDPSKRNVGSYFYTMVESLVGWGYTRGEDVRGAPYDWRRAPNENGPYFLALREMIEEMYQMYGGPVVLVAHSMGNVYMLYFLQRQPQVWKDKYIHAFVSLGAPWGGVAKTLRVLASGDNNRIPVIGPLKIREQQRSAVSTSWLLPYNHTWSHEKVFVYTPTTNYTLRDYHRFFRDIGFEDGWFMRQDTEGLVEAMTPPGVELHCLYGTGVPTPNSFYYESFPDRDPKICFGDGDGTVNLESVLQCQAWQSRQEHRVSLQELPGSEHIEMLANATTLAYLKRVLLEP
Description: Inhibition of Lypla3 in mouse Neuro2a cells at 3 nM after 4 hrs by ABPP-SILAC assay

[2] = target: Acyl-protein thioesterase 1 (Mus musculus) (UniProt P97823)
Description: Inhibition of Lypla1 in mouse Neuro2a cells at 3 nM after 4 hrs by ABPP-SILAC assay

[3] = target: T2, Marginal zone B- and B1-cell-specific protein (Mus musculus) (UniProt Q9D8I1)
T2 sequence (whole entry): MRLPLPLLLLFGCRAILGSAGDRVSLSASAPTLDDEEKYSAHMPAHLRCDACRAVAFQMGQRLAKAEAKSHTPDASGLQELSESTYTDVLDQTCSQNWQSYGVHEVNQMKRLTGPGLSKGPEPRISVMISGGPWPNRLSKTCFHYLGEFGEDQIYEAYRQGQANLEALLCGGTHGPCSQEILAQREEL
Description: Inhibition of Perp1 in mouse Neuro2a cells at 3 nM after 4 hrs by ABPP-SILAC assay

[4] = target: T3, Acyl-coenzyme A thioesterase 1 (Mus musculus) (UniProt O55137)
T3 sequence (whole entry): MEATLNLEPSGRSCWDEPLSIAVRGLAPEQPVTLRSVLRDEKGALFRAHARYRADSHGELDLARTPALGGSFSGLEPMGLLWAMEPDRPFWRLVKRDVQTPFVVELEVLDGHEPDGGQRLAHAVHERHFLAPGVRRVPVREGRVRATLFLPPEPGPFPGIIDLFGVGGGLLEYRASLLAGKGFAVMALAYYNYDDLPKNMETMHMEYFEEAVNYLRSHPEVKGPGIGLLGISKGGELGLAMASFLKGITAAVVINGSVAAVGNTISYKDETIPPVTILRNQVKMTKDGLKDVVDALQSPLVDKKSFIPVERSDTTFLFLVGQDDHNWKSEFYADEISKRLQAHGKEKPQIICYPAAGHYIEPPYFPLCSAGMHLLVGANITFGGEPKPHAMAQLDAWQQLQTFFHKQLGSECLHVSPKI
Description: Inhibition of Acot1 in mouse Neuro2a cells at 3 nM after 4 hrs by ABPP-SILAC assay

[5] = target: T4, Serine hydrolase-like protein (Mus musculus) (UniProt Q9EPB5)
T4 sequence (whole entry): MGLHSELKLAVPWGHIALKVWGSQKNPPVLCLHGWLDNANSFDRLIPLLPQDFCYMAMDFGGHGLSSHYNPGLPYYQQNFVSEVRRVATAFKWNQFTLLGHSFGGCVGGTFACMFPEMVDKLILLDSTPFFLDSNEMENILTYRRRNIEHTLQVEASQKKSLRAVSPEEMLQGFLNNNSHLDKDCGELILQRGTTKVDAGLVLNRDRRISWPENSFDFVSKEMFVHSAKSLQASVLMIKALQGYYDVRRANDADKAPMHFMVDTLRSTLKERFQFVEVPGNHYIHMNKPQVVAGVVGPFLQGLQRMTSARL
Description: Inhibition of Serhl in mouse Neuro2a cells at 3 nM after 4 hrs by ABPP-SILAC assay

[6] = target: T5, Lon protease homolog, mitochondrial (Mus musculus) (UniProt Q8CGK3)
T5 sequence (whole entry): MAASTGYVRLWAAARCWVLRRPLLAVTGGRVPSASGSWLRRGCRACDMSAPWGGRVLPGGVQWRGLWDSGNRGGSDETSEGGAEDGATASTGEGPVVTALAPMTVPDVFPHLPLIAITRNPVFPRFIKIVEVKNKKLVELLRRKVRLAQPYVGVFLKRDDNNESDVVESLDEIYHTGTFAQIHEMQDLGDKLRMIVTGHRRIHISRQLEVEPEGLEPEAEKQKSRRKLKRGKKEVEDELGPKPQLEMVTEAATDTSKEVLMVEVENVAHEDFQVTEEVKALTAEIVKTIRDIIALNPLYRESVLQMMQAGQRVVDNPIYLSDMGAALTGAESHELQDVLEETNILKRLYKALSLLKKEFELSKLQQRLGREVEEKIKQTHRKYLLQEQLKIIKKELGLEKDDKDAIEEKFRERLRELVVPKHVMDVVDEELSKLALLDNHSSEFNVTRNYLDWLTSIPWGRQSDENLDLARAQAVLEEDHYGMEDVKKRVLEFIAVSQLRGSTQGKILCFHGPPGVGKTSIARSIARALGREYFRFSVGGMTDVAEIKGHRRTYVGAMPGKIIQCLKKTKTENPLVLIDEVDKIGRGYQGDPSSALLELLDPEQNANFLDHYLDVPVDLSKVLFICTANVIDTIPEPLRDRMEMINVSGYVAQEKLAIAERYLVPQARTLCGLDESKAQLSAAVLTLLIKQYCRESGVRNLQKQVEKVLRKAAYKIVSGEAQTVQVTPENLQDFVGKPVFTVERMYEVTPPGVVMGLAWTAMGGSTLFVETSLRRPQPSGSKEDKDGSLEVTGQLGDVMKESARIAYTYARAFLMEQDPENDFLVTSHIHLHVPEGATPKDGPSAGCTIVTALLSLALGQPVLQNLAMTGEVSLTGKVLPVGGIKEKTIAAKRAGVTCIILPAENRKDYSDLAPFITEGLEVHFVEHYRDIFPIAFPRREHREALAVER
Description: Inhibition of Lonp1 in mouse Neuro2a cells at 3 nM after 4 hrs by ABPP-SILAC assay

[7] = target: Prolyl endopeptidase (Mus musculus) (UniProt Q9QUR6)
Description: Inhibition of Perp in mouse Neuro2a cells at 3 nM after 4 hrs by ABPP-SILAC assay

Measured: inhibition

Sequence of Acyl-protein thioesterase 1 (Mus musculus) (P97823 whole entry): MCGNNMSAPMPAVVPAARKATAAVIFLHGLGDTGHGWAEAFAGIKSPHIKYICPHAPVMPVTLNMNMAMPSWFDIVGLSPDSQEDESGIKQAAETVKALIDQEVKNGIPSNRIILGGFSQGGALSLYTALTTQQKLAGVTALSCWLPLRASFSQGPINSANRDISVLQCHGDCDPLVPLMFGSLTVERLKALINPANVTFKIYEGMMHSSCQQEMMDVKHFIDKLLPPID
Sequence of Prolyl endopeptidase (Mus musculus) (Q9QUR6 whole entry, looked up): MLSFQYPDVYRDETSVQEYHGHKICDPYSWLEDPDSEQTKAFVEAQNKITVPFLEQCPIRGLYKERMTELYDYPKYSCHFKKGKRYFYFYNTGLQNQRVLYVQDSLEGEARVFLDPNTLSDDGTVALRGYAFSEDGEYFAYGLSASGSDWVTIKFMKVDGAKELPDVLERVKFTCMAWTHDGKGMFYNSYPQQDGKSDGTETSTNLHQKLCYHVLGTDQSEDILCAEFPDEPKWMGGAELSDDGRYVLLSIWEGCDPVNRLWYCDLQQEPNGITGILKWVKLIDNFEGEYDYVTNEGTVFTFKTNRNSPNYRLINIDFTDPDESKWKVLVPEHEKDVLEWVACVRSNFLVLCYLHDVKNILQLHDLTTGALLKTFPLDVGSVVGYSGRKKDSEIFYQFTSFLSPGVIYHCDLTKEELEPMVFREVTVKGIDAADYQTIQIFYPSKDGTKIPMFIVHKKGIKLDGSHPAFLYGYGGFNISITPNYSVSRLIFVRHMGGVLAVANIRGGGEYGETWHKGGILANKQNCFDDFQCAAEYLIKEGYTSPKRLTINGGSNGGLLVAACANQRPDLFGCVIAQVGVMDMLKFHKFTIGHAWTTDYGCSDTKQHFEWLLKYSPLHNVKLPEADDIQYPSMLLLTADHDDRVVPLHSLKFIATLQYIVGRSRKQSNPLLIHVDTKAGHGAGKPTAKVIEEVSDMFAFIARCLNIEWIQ

O=C(N1CCCCC1c1ccccc1)n1cc(-c2ccc(-c3cccc(CO)c3)cc2)nn1 (racemic)
< 50%: all assays above

O=C(c1cccc(-c2ccc(-c3cn(C(=O)N4CCCCC4c4ccccc4)nn3)cc2)c1)N1CCCCC1 (racemic)
< 50%: all assays above

O=C(O)c1cccc(-c2ccc(-c3cn(C(=O)N4CCCCC4Cc4ccccc4)nn3)cc2)c1 (racemic)
< 50%: all assays above
